{
  "source": "patent US20160136229A1",
  "about": "“MATERIALS FOR POSITIVE CATHEPSIN B MODULATION AND METHODS OF USE FOR TREATING MILD COGNITIVE IMPAIRMENT (MCI), EARLY DEMENTIA, A-SYNUCLEINOPATHY, TRAUMATIC BRAIN INJURY, CARDIOMYOPATHY, EYE DISEASE AND SKIN DAMAGE” (University of North Carolina at Pembroke, priority 2013, published 2016)",
  "key": {"11-month Fischer rats": {"tested_on": "11-month Fischer rats", "experiment": "Passive avoidance task in 11-month Fischer rats (model of MCI and early dementia)", "assay_type": "in vivo, rat", "conditions": "27 mg/kg daily", "method": "FIG. 2. The cathepsin B modulatory compound PADK improved learning and memory in 11-month Fischer rats, a model of mild cognitive impairment (MCI) and early dementia. A classic passive avoidance task to assess memory utilized a bi-sectioned apparatus consisting of a brightly-lit compartment and a dark compartment separated by a small door. […] In this figure, the female rats were injected daily with vehicle or 27 mg/kg PADK. Following each morning's injection, the rats were placed individually into the bright compartment and, after 10 s, the door was opened through which the rats typically entered immediately (3 min total time in apparatus/rat/day). Panel A: On the seventh injection day, latency time before entering the opened doorway was measured (pre-shock bars, mean±SEM), after which the door was closed to contain the animal in the dark compartment. A mild foot shock of 0.6 mA, 2 s duration, was then administered to the contained rat via the floor grid. Following the next day's injections, rats were again placed in the bright compartment and latency times measured after the door was opened (post-shock bars). […] Brains were removed after the behavior studies in order to assess cathepsin B levels.\nIn the 11-month Fischer rats, a model of MCI and early dementia, PADK improved passive avoidance memory. […]"}, "PHF-tau": {"tested_on": "PHF-tau", "conditions": "cited from earlier work"}, "mutant colonies": {"tested_on": "mutant colonies", "experiment": "Ames test of genetic toxicity", "assay_type": "cell-based", "conditions": "in contrast to a mutagen tested in parallel"}, "[1]": {"tested_on": "human A53T α-synuclein transgenic mice", "experiment": "Open field test in A53T α-synuclein transgenic mice", "assay_type": "in vivo, mouse", "conditions": "A53T mice 7-8 months; 18 mg/kg/day for 11 days", "method": "FIG. 5. The cathepsin B modulator PADK also has a behavioral effect during early α-synucleinopathy. Vehicle-treated and PADK in the model of early α-synucleinopathy, human A53T α-synuclein transgenic mice, 7-8 months old, were injected with vehicle or PADK (18 mg/kg/day) for 11 days and their locomotor activity was measured in the open field test (OFT) for two days, center and perimeter crossings were measured. No difference in center crossings was found on day 1 as compared to wild-type mice (left graph), thus an indication of pre-symptomatic early stage Parkinson's disease (PD) before typical locomotor deficits. However, center crossings are often used as a measure of altered anxiety in PD mice. […] The altered anxiety in the vehicle-treated A53T mice appears to be a selective effect since perimeter crossings on day 2 were unchanged (right graph)."}, "C57BL/6 mice": {"tested_on": "C57BL/6 mice", "experiment": "Safety evaluation in PADK-injected C57BL/6 mice (synaptic markers, blood markers, behavior, organ histology)", "assay_type": "in vivo, mouse", "method": "FIG. 11. Safety evaluation of PADK found no evidence of toxicity. […] Alanine aminotransferase (ALT) and blood urea nitrogen (BUN) measures in plasma were also unchanged (E), indicating no effect on major organs. […] Organ sections were H+E stained and tissue integrity was evaluated by a pathologist that was blinded to the treatment groups (G).\nAdditional safety evaluation tests with PADK were conducted. […] Blood markers were also unchanged, indicating no effect on major organs (FIG. 11E)."}, "cathepsin B": {"biological_target": "cathepsin B (Mus musculus, UniProt P10605)", "sequence (P10605 80-333)": "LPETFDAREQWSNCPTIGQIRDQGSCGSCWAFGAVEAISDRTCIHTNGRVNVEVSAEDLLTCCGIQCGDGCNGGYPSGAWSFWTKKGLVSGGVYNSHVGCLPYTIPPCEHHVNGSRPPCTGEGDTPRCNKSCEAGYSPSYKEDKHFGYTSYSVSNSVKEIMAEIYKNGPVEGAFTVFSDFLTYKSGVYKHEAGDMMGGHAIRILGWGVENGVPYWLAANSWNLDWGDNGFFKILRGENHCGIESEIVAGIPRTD", "experiment": "Cathepsin B / LAMP1 immunostaining of hippocampal tissue from PADK-treated mice", "assay_type": "in vivo", "set-up": "from tissue; host or cells: mouse hippocampus (A1)", "conditions": "i.p., 20 mg/kg/day×9 days", "excerpt": "FIG. 1. Lysosomal modulation increases the cathepsin B content of lysosomes and reduces intracellular Δβ1-42 in the APPswe/PS1ΔE9 transgenic mouse model of Alzheimer's disease. […] Without wishing to be bound by any scientific theory, the latter steps may involve processing/trafficking of active intermediate (intCB) and mature forms (matCB) from early/late endosomes to lysosomes in order to promote protein degradation (A). […] The increase in organellar cathepsin B enzyme (red) in PADK-treated APPswe/PS1ΔE9 transgenic mice (tg) was associated with a decrease in intracellular Δβ1-42 in the CA1 pyramidal neurons (C). Arrows denote co-localization in lysosomes, capturing intact Δβ1-42 before being degraded by cathepsin B. View-field widths: 12 μm. wt, vehicle-treated wild-type mice.\nThe lysosomal modulator Z-Phe-Ala-diazomethylketone (PADK) is administered to APPswe/PS1ΔE9 transgenic mice. Low-level PADK enhances cathepsin trafficking and maturation, thereby improving the clearance capacity of lysosomes (FIG. 1). It attenuates both PHF-tau and synaptic decline in the hippocampal slice model of protein accumulation (Bendiske and Bahr, 2003; Butler et al., 2005; Bahr, 2009). […] In PADK-treated transgenic mice, the increase in organellar cathepsin B was associated with a decrease in intracellular Aβ1-42 in pyramidal neurons (FIG. 1C)."}, "[2]": {"conditions": "low-level PADK, hippocampal slice model of protein accumulation"}, "[3]": {"conditions": "C57BL/6 mice, ip daily for 9 days"}},
  "data": [
    {"smiles": "C[C@H](NC(=O)[C@H](Cc1ccccc1)NC(=O)OCc1ccccc1)C(=O)C=[N+]=[N-]", "note": "[PADK, N-carbobenzyloxy-L-phenylalanyl-L-alanyl-diazomethylketone]", "values": [
      {"measurement": "passive avoidance behavior (latency post-shock)", "setting": "11-month Fischer rats; day after 0.6 mA foot shock, vs vehicle, P=0.016", "value": "improve passive avoidance behavior"},
      {"measurement": "latency time before entering the opened doorway, pre-shock", "setting": "11-month Fischer rats; seventh injection day, vs vehicle-treated aged rats", "value": "no difference"},
      {"measurement": "microtubule stability markers, transport function, and synaptic proteins", "setting": "PHF-tau; following PADK-mediated tau clearance", "value": "recovery"},
      {"measurement": "PHF-tau", "setting": "PHF-tau; [2]", "value": "attenuates"},
      {"measurement": "synaptic decline", "setting": "PHF-tau; [2]", "value": "attenuates"},
      {"measurement": "tau aggregates and tau-related pathology", "setting": "PHF-tau; when CatB activity was increased with PADK", "value": "Reduction"},
      {"measurement": "mutant colonies in the Ames test", "setting": "mutant colonies", "value": "did not produce mutant colonies"},
      {"measurement": "center crossings on day 2 (altered anxiety)", "setting": "[1]", "value": "did not consistently exhibit such a positive trend"},
      {"measurement": "Alanine aminotransferase (ALT) in plasma", "setting": "C57BL/6 mice; [3]", "value": "unchanged"},
      {"measurement": "blood urea nitrogen (BUN) in plasma", "setting": "C57BL/6 mice; [3]", "value": "unchanged"},
      {"measurement": "synaptic markers", "setting": "C57BL/6 mice; [3]", "value": "unchanged"},
      {"measurement": "motor coordination rotarod test", "setting": "C57BL/6 mice; prior behavioral tests", "value": "no adverse effects"},
      {"measurement": "spatial memory using conditioned place preference", "setting": "C57BL/6 mice; prior behavioral tests", "value": "no adverse effects"},
      {"measurement": "organ tissue integrity (H+E stained sections, blinded pathologist)", "setting": "C57BL/6 mice; various organs", "value": "scored as normal"},
      {"measurement": "levels of cathepsin B in hippocampal neurons, co-localized with LAMP1-positive lysosomes", "setting": "cathepsin B", "value": "enhanced levels of cathepsin B"}
    ]}
  ]
}
